From PubChem BioAssay (NCI)
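GI50 marks 50% less growth. TGI denotes the concentration required for complete inhibition of growth.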

Legend:
Assay in all cases: growth of human tumour cells (NCI), 384-well format
[1] = test system: 786-0 renal
[2] = test system: A498 renal
[3] = test system: A549 NSCLC
[4] = test system: ACHN renal
[5] = test system: BT-549 breast
[6] = test system: CCRF-CEM leukemia
[7] = test system: DU-145 prostate
[8] = test system: EKVX NSCLC
[9] = test system: HCC-2998 colon
[10] = test system: HCT-116 colon
[11] = test system: HCT-15 colon
[12] = test system: HL-60(TB) leukemia
[13] = test system: HOP-62 NSCLC
[14] = test system: HOP-92 NSCLC
[15] = test system: HT29 colon
[16] = test system: IGROV1 ovarian
[17] = test system: K-562 leukemia
[18] = test system: KM12 colon
[19] = test system: M14 melanoma
[20] = test system: MALME-3M melanoma
[21] = test system: MDA-MB-231 breast
[22] = test system: MDA-MB-468 breast
[23] = test system: MOLT-4 leukemia
[24] = test system: NCI-H226 lung
[25] = test system: NCI-H23 lung
[26] = test system: NCI-H322M lung
[27] = test system: NCI-H460 NSCLC
[28] = test system: NCI-H522 lung
[29] = test system: NCI/ADR-RES ovarian
[30] = test system: OVCAR-4 ovarian
[31] = test system: OVCAR-5 ovarian
[32] = test system: OVCAR-8 ovarian
[33] = test system: PC-3 prostate
[34] = test system: RPMI-8226 leukemia
[35] = test system: SF-295 CNS
[36] = test system: SF-539 CNS
[37] = test system: SK-MEL-2 melanoma
[38] = test system: SK-MEL-28 melanoma
[39] = test system: SN12C renal
[40] = test system: SNB-19 CNS
[41] = test system: SNB-75 CNS
[42] = test system: SR leukemia
[43] = test system: SW-620 colon
[44] = test system: T-47D breast
[45] = test system: TK-10 renal
[46] = test system: UACC-257 melanoma
[47] = test system: UACC-62 melanoma

**Q.** Which results are given for C[C@@H]1CN(CC(=O)N2CC(C)(C)c3nc(CO)c(Cc4ccc(F)cc4)cc32)[C@@H](CN2CCOC[C@H]2C)CN1?
**A.** GI50 [1]: 20.4 µM; TGI [1]: 42.2 µM; GI50 [2]: 21.5 µM; TGI [2]: 53.2 µM; GI50 [3]: > 69.2 µM; TGI [3]: > 100 µM; GI50 [4]: 61.8 µM; TGI [4]: > 100 µM; GI50 [5]: 0.695 µM; TGI [5]: 27.8 µM; GI50 [6]: 16.1 µM; TGI [6]: 42.7 µM; GI50 [7]: > 73.5 µM; TGI [7]: > 100 µM; GI50 [8]: 29.9 µM; TGI [8]: > 88.8 µM; GI50 [9]: 15.8 µM; TGI [9]: 29.8 µM; GI50 [10]: 35.6 µM; TGI [10]: > 91.2 µM; GI50 [11]: 27.7 µM; TGI [11]: > 83.3 µM; GI50 [12]: 4.54 µM; TGI [12]: 18.9 µM; GI50 [13]: 17.9 µM; TGI [13]: > 61.2 µM; GI50 [14]: 14.6 µM; TGI [14]: 43.8 µM; GI50 [15]: 19.3 µM; TGI [15]: 36.7 µM; GI50 [16]: 61.4 µM; TGI [16]: > 100 µM; GI50 [17]: 16.8 µM; TGI [17]: 30.9 µM; GI50 [18]: 28.2 µM; TGI [18]: 63.8 µM; GI50 [19]: 17.2 µM; TGI [19]: 31.1 µM; GI50 [20]: 0.0411 µM; TGI [20]: 2.61 µM; GI50 [21]: 0.103 µM; TGI [21]: 2.39 µM; GI50 [22]: 0.483 µM; TGI [22]: 14.8 µM; GI50 [23]: 18.5 µM; TGI [23]: 35.6 µM; GI50 [24]: 40.4 µM; TGI [24]: > 82.3 µM; GI50 [25]: 24.8 µM; TGI [25]: 99.2 µM; GI50 [26]: 33.5 µM; TGI [26]: > 73.1 µM; GI50 [27]: 26 µM; TGI [27]: 56.1 µM; GI50 [28]: 14.2 µM; TGI [28]: 32.4 µM; GI50 [29]: > 70.9 µM; TGI [29]: > 100 µM; GI50 [30]: 0.015 µM; TGI [30]: 0.112 µM; GI50 [31]: 38.7 µM; TGI [31]: 99.8 µM; GI50 [32]: 17.7 µM; TGI [32]: 47.8 µM; GI50 [33]: 65.2 µM; TGI [33]: > 100 µM; GI50 [34]: 23.1 µM; TGI [34]: 38 µM; GI50 [35]: 42 µM; TGI [35]: > 81.4 µM; GI50 [36]: 32.4 µM; TGI [36]: 67.2 µM; TGI [37]: 14.6 µM; GI50 [38]: 14.1 µM; TGI [38]: 33.3 µM; GI50 [39]: > 79 µM; TGI [39]: > 100 µM; GI50 [40]: 99.7 µM; TGI [40]: > 100 µM; GI50 [41]: 16.3 µM; TGI [41]: 41.6 µM; GI50 [42]: 15.1 µM; TGI [42]: 28.5 µM; GI50 [43]: 53.5 µM; TGI [43]: 97.4 µM; GI50 [44]: 22.4 µM; TGI [44]: 49 µM; GI50 [45]: 27.9 µM; TGI [45]: 52.9 µM; GI50 [46]: 16.1 µM; TGI [46]: 29.7 µM; GI50 [47]: 27.9 µM; TGI [47]: > 69 µM
